Reference: paper PMC3795068, “Functional Evolution of a Multigene Family: Orthologous and Paralogous Pheromone Receptor Genes in the Turnip Moth, Agrotis segetum” (PLoS ONE, 2013)
Residue numbers refer to the chain shown, from its start.

Legend:
Assay in all cases: two-electrode voltage clamp, Xenopus oocytes, inward current
Assay type in all cases: cell-based
AsegOR10 = biological target: T1, AsegOR10 (Agrotis segetum, UniProt U5KJI4); settings: agonist, 100 uM stimulus, 20 s, -80 mV, Ringer's pH 7.6, with Orco
T1 construct: full-length ORF, 432 aa, pCS2+ cRNA co-injected with Orco (473 aa) cRNA in Xenopus laevis oocytes; with Odorant receptor co-receptor (Orco)
T1 sequence (U5KJI4 1-432): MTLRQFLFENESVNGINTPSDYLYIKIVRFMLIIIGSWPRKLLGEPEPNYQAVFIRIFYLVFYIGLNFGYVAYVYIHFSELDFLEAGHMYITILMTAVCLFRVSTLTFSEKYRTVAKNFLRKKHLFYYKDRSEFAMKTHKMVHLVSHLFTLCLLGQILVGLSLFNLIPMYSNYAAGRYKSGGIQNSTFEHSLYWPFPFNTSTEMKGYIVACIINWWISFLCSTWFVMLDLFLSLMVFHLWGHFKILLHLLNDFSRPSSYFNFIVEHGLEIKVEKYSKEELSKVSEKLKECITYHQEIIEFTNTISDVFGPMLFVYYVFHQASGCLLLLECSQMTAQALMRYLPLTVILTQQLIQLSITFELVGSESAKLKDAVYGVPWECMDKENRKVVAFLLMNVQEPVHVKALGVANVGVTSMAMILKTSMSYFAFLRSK
T1 sequence (U5KJY5 1-473 partner): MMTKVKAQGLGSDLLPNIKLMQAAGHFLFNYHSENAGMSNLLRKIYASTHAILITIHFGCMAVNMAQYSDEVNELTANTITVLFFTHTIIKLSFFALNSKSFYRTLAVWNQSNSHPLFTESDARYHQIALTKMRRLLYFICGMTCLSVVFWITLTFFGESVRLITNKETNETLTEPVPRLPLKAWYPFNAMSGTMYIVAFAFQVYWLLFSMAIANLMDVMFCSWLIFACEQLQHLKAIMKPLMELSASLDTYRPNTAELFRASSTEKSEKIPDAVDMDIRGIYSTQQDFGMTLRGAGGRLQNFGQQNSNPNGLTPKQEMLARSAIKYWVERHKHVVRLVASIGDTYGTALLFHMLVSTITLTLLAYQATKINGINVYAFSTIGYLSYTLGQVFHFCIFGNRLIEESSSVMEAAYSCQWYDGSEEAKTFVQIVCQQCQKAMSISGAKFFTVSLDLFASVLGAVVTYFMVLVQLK

AsegOR5 = biological target: T2, AsegOR5 (Agrotis segetum, UniProt U5KJI3); settings: agonist, 100 uM stimulus, 20 s, -80 mV, Ringer's pH 7.6, with Orco
T2 construct: full-length ORF, 443 aa, pCS2+ cRNA co-injected with Orco (473 aa) cRNA in Xenopus laevis oocytes; with Odorant receptor co-receptor (Orco)
T2 sequence (U5KJI3 1-443): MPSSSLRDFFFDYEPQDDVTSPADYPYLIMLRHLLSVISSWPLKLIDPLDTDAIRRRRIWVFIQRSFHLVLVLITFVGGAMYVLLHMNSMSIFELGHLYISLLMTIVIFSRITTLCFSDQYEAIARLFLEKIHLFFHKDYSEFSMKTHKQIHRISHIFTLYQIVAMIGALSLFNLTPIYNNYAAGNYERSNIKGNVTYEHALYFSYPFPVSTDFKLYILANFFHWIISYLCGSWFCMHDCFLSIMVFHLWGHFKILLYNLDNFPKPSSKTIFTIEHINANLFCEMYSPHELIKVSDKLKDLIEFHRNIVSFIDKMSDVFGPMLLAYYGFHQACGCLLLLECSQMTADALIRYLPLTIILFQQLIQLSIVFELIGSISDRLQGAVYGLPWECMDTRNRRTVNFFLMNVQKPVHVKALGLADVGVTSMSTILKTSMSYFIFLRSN
T2 sequence (U5KJY5 1-473 partner): T1 sequence (U5KJY5 1-473 partner)

AsegOR3 = biological target: T3, AsegOR3 (Agrotis segetum, UniProt U5KJT1); settings: agonist; 100 uM stimulus, 20 s, -80 mV, Ringer's pH 7.6, with Orco
T3 construct: full-length ORF, 435 aa, pCS2+ cRNA co-injected with Orco (473 aa) cRNA in Xenopus laevis oocytes; with Odorant receptor co-receptor (Orco)
T3 sequence (U5KJT1 1-435): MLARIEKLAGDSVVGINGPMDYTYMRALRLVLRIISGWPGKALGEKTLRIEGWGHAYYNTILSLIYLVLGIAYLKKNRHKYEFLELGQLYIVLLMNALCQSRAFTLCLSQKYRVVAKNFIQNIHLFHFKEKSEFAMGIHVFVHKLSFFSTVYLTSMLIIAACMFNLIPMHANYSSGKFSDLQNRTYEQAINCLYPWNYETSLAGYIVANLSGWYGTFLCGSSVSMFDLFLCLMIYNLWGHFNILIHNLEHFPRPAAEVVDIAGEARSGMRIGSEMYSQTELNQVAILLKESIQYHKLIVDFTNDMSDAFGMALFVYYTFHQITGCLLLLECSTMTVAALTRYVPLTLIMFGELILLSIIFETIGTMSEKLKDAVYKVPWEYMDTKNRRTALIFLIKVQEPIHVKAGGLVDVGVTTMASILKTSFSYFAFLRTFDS
T3 sequence (U5KJY5 1-473 partner): T1 sequence (U5KJY5 1-473 partner)

AsegOR4 = biological target: T4, AsegOR4 (Agrotis segetum, UniProt U5KJQ7); settings: agonist; 100 uM stimulus, 20 s, -80 mV, Ringer's pH 7.6, with Orco; dose response curve
T4 construct: full-length ORF, 424 aa, pCS2+ cRNA co-injected with Orco (473 aa) cRNA in Xenopus laevis oocytes; with Odorant receptor co-receptor (Orco)
T4 sequence (U5KJQ7 1-424): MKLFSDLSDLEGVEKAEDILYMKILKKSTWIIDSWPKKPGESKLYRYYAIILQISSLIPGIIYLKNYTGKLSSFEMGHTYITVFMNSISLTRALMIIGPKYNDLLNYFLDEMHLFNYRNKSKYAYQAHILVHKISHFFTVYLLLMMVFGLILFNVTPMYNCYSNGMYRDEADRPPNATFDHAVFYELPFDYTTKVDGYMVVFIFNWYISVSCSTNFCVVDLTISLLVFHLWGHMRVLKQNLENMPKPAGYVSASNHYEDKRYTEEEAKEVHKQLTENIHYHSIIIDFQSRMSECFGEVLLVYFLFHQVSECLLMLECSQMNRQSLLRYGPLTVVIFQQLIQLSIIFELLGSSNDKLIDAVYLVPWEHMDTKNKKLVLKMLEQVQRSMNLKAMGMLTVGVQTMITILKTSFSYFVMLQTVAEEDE
T4 sequence (U5KJY5 1-473 partner): T1 sequence (U5KJY5 1-473 partner)

AsegOR7 = biological target: T5, AsegOR7 (Agrotis segetum, UniProt U5KK33); settings: agonist; 100 uM stimulus, 20 s, -80 mV, Ringer's pH 7.6, with Orco
T5 construct: with Odorant receptor co-receptor (Orco)
T5 sequence (U5KK33 1-432): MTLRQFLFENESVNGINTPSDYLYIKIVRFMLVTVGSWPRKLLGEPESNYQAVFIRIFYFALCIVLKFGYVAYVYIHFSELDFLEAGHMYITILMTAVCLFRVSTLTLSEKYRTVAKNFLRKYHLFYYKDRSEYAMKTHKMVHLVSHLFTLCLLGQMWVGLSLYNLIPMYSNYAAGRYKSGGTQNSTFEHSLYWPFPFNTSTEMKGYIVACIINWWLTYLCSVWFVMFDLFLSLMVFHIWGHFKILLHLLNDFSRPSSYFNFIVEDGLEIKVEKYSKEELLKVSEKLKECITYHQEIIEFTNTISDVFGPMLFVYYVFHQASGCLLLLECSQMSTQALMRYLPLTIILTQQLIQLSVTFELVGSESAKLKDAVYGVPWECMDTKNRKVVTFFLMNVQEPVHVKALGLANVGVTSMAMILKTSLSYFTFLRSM
T5 sequence (U5KJY5 1-473 partner): T1 sequence (U5KJY5 1-473 partner)

AsegOR9 = biological target: T6, AsegOR9 (Agrotis segetum, UniProt U5KJQ9); settings: agonist; 100 uM stimulus, 20 s, -80 mV, Ringer's pH 7.6, with Orco; dose response curve
T6 construct: full-length ORF, 433 aa, pCS2+ cRNA co-injected with Orco (473 aa) cRNA in Xenopus laevis oocytes; with Odorant receptor co-receptor (Orco)
T6 sequence (U5KJQ9 1-433): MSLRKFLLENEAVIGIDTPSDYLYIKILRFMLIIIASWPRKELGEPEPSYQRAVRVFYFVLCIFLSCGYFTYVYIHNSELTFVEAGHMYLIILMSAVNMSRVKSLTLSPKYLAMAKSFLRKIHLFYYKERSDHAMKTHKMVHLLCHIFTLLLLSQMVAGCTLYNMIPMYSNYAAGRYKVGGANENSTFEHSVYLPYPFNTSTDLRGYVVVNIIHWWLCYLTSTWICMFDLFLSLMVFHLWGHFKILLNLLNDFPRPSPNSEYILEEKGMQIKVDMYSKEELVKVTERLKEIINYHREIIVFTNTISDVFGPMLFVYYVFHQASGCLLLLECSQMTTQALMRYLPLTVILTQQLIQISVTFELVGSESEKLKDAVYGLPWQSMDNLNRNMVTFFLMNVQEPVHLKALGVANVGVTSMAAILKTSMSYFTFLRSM
T6 sequence (U5KJY5 1-473 partner): T1 sequence (U5KJY5 1-473 partner)

AsegOR8 = biological target: T7, AsegOR8 (Agrotis segetum, UniProt U5KJT2); settings: agonist; 100 uM stimulus, 20 s, -80 mV, Ringer's pH 7.6, with Orco; dose response curve
T7 construct: with Odorant receptor co-receptor (Orco)
T7 sequence (U5KJT2 1-430): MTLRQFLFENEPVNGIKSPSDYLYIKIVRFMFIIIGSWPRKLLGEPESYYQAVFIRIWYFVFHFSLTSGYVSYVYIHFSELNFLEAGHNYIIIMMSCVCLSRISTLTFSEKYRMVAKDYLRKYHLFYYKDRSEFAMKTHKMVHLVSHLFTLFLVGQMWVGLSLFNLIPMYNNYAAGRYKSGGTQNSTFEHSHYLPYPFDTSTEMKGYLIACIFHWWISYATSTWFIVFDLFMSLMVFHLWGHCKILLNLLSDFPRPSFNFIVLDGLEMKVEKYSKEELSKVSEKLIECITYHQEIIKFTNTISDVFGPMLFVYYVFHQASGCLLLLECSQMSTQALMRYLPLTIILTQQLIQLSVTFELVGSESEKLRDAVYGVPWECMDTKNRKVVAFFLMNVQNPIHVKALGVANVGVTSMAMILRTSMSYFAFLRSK
T7 sequence (U5KJY5 1-473 partner): T1 sequence (U5KJY5 1-473 partner)

AsegOR1 = biological target: T8, AsegOR1 (Agrotis segetum, UniProt U5KK32); settings: agonist; 100 uM stimulus, 20 s, -80 mV, Ringer's pH 7.6, with Orco; dose response curve
T8 construct: full-length ORF, 432 aa, pCS2+ cRNA co-injected with Orco (473 aa) cRNA in Xenopus laevis oocytes; with Odorant receptor co-receptor (Orco)
T8 sequence (U5KK32 1-432): T5 sequence (U5KK33 1-432) with M31L, V33I, F101S, V103I, T114M, R131H, Y134L, V376I, T383K, K384E
T8 sequence (U5KJY5 1-473 partner): T1 sequence (U5KJY5 1-473 partner)

AsegOR6 = biological target: T9, AsegOR6 (Agrotis segetum, UniProt U5KJY6); settings: agonist; 100 uM stimulus, 20 s, -80 mV, Ringer's pH 7.6, with Orco; dose response curve
T9 construct: full-length ORF, 430 aa, pCS2+ cRNA co-injected with Orco (473 aa) cRNA in Xenopus laevis oocytes; with Odorant receptor co-receptor (Orco)
T9 sequence (U5KJY6 1-430): T7 sequence (U5KJT2 1-430) with S48P, Q51K, V53I, F60L, S279L, R368K, A425T
T9 sequence (U5KJY5 1-473 partner): T1 sequence (U5KJY5 1-473 partner)

**Q.** How did the “two-electrode voltage clamp, Xenopus oocytes, inward current” value (“two-electrode voltage clamp” for short) (AsegOR10) turn out when CCCC/C=C\CCCCCCCCOC(C)=O [Z9-14:OAc] was run?
**A.** The value was “AsegOR10 responded to Z9-14:OAc and Z5-10:OAc but with low sensitivity”.

**Q.** And the “two-electrode voltage clamp” value (AsegOR5; dose response curve)?
**A.** The value was “AsegOR5 (Cluster II) showed the largest response to Z9-14:OAc”.

**Q.** CCCC/C=C\CCCCCCOC(C)=O [Z7-12:OAc] was tested. Which “two-electrode voltage clamp” value (AsegOR3) did it give?
**A.** Its value is “albeit with Z7-12:OAc standing out as the most active one”.

**Q.** What about the “two-electrode voltage clamp” value (AsegOR4) of the same compound?
**A.** Its value is “AsegOR4 (Cluster IV) was specifically responsive to the pheromone component Z7-12:OAc”.

**Q.** And the “two-electrode voltage clamp” value (AsegOR7)?
**A.** The value was “receptors for Z8-12:OAc and Z7-12:OAc (AsegOR1 and AsegOR7)”.

**Q.** And the “two-electrode voltage clamp” value (AsegOR5)?
**A.** The value was “a much smaller response to Z7-12:OAc and marginal responses to other tested compounds”.

**Q.** Which “two-electrode voltage clamp” value (AsegOR7) does the source give for CCC/C=C\CCCCCCCOC(C)=O [Z8-12:OAc] here?
**A.** The value was “receptors for Z8-12:OAc and Z7-12:OAc (AsegOR1 and AsegOR7)”.

**Q.** Which results are given for CCCC/C=C\CCCCOC(C)=O [Z5-10:OAc]?
**A.** two-electrode voltage clamp, Xenopus oocytes, inward current (AsegOR10; dose response curve): AsegOR10 responded to Z9-14:OAc and Z5-10:OAc but with low sensitivity; two-electrode voltage clamp, Xenopus oocytes, inward current (AsegOR9): co-expressing AsegOR9 (Cluster I) and Aseg\Orco robustly and specifically responded to Z5-10:OAc; two-electrode voltage clamp, Xenopus oocytes, inward current (AsegOR8): Different sensitivities of the six paralogues to the main pheromone component Z5-10:OAc; two-electrode voltage clamp, Xenopus oocytes, inward current (AsegOR1): Oocytes co-expressing AsegOR1 and Aseg\Orco also responded to Z5-10:OAc

**Q.** Which results are given for CCCC/C=C\CCCCO [Z5-10:OH]?
**A.** two-electrode voltage clamp, Xenopus oocytes, inward current (AsegOR8): Two of them (AsegOR6 and AsegOR8) showed strong responses to Z5-10:OH (Figure 5B); two-electrode voltage clamp, Xenopus oocytes, inward current (AsegOR6): oocytes that showed the strongest response to another antagonist Z5-10:OH
